Results published in US20260177556A1, “PROXIMITY-BASED LABELING OF SIALYLATED GLYCOPROTEINS” (THE TRUSTEES OF PRINCETON UNIVERSITY, priority 2022, published 2026).

Columns and labels:
Assay type in all cases: cell-based
[1] = system: sialylated cell-surface glycoproteins of HeLa cells; experiment: Glycomap labeling efficiency by streptavidin western blot densitometry; details: for Experiment/control: ratio of densitometry readouts
Method: HeLa cells (approx. 0.4×10^6 cells) were incubated in 6 well dishes in complete DMEM (2 mL) containing Ac4ManNAz (100 μM) at 37° C. for 72 hours. The cells were washed with DPBS (3×1 mL) and then incubated in complete DMEM (2 mL) containing DBCO-iridium (5 μM) or DBCO-biotin (5 μM) at 37° C. for 24 hours. The cells were washed with DPBS (3×1 mL) and irradiated in DMEM (no phenol-red, 200 μL) containing biotin-diazirine (250 μM) at room temperature for 20 minutes in the biophotoreactor (blue LEDs). The cells were washed with DPBS (3×1 mL), scraped in DPBS (1 mL), and transferred to 1.5 mL Eppendorf tubes. The cells were pelleted at 400×G for 5 minutes and resuspended in Ripa lysis buffer (500 μL). The cells were lysed by sonication (bioruptor) at 4° C. for 10 minutes (20 cycles, 15 sec on 15 sec off at 100% power). The protein concentration was normalized by BCA assay and the lysate was analyzed by Western blot (20 μg of protein per lane, 12% gel, 150 V). The gel was transferred via iBlot 2 to an NC membrane Following transfer, the membrane was immersed in Odyssey Blocking Buffer (Li-Cor, 927-50000) and incubated at room temperature for 1 hour. The blocking buffer was replaced with fresh blocking buffer (10 mL) containing anti-Actin antibody (10 μL) and the membrane was rocked for 1 hour. The buffer was decanted, and the membranes were washed with 1×TBST (4×5 min) and water (3×5 sec). […]
Based on the Western blot results shown in FIG. 2B the efficiency of labeling via Glycomap can be calculated using densitometry. […]
The whole calculation is listed below: • Densitometry readout DBCO-Iridium full experiment: 108′442 • Densitometry readout DBCO-Iridium control: 6′164 • Experiment/control: 17.6 • Densitometry readout DBCO-Biotin full experiment: 158′335 • Densitometry readout DBCO-Biotin control: 5′937 • Experiment/control: 26.7 • Comparison: 17.6/26.7=0.7 tags per catalyst.

[2] = system: HEK293T, HeLa or primary cervical epithelial cells; experiment: Confocal microscopy of biotinylation after glycomap experiment; details: after Ac4ManNAz, 5 μM reagent, irradiation in presence of biotin-diazirine
Method: Cells (HEK293T, HeLa or primary cervical epithelial cells) (approx. 2×10^4 cells) were incubated in poly-lysine coated 8 well chamber slides in complete DMEM (200 μL) containing Ac4ManNAz (100 μM) at 37° C. for 48 hours. The cells were washed with DPBS (3×200 μL) and then incubated in complete DMEM (200 μL) containing DBCO-iridium (5 μM) or DBCO-biotin (5 μM) at 37° C. for 24 hours. The cells were washed with DPBS (3×200 μL) and irradiated in DMEM (no phenol-red, 200 μL) containing biotin-diazirine (250 μM) at room temperature for 20 minutes in the biophotoreactor (blue LEDs). The cells were washed with DPBS (3×200 μL) and fixed with prewarmed 4% paraformaldehyde (200 μL) at room temperature for 30 min. The cells were washed with DPBS (2×200 μL) and blocked with 3% BSA in DPBS (200 μL) at room temperature for 1 hour. The blocking buffer was replaced with fresh 3% BSA in DPBS (200 μL) containing Hoechst (1:1000), and Streptavidin-AlexaFluor 555 conjugate (1:1000). The cells were stained in the dark at room temperature for 1 hour and then stored in the dark at 4° C. The cells were imaged on a NIKON A1R-SI microscope (Nikon Instruments, Inc., Melville, NY) at 20× magnification. The images were processed with Fiji-ImageJ. Images shown are representative of the multiple cross-sectional images taken during each session.

[3] = system: HeLa cells; experiment: Mass spectrometry-based metabolomic quantification of sialidase-treated cells; details: sialidase-treated vs untreated HeLa cells, 72 hours
Method: In transparent 10 cm dishes (×6), HeLa cells were grown for 72 hours in 5 mL complete DMEM supplemented with 10% FBS in presence or absence of neuraminidase (20 U/mL). After 72 hours, the cells were washed with DPBS (3×5 mL) and incubated with TrypLE (1 mL) for 15 minutes at 37° C. The cells were transferred to 15 mL conical tubes using 4 mL DPBS to wash the plates. The cells were pelleted at 500×G for 4 minutes and resuspended in 1 mL DPBS. The cells were counted, and 500′000 cells/experiment were transferred to 1.5 mL Eppendorf tubes. The cells were pelleted (500×g for 4 min), the supernatant removed, and the cells were lysed with ice cold 80% MeOH (60 μL) for 30 minutes at 0° C. The cell lysate was clarified by centrifugation at 20′000×G for 25 minutes and the lysates were transferred to new 0.5 mL Eppendorf tubes and stored at −80° C. until mass spectrometry analysis.
HPLC-grade water, methanol, and acetonitrile were obtained from Thermo Fisher Scientific. Supernatant sample was thawed at room temperature and kept at 4° C. in an autosampler. Samples were analyzed using a Q Exactive Plus mass spectrometer coupled to Vanquish UHPLC system (Thermo Fisher Scientific). LC separation was achieved using a XBridge BEH Amide column (2.1 mm×150 mm, 2.5-μm particle size, 130-A pore size; Waters, Milford, MA, USA) using a gradient of solvent A (20 mM ammonium acetate+20 mM ammonium hydroxide in 95:5 water/acetonitrile [pH 9.45]) and solvent B (acetonitrile). Flow rate was […]. The gradient was 0 min, 90% B; 2 min, 90% B; 3 min, 75%; 7 min, 75% B; 8 min, 70%, 9 min, 70% B; 10 min, 50% B; 12 min, 50% B; 13 min, 25% B; 14 min, 25% B; 16 min, 0% B, 20.5 min, 0% B; 21 min, 90% B; 25 min, 90% B. The column temperature was 25° C., and the injection volume was 5 μL. The mass spectrometer is operated in full scan mode with separate runs in positive mode and negative mode covering m/z 70-1000, with resolution 140,000 at m/z 200, AGC target 5E6, maximum injection time 200 ms.
Data analyses were performed using El-Maven and the metabolites identified with an in-house library using authentic standards.^3 Metabolite signal intensity were then further processed in Excel (median correction) and Graphpad Prism (transformation, t-test, and volcano plot generation).

[4] = system: HeLa cells; experiment: Colorimetric zinc assay
Method: The zinc assay was purchased from Abcam (ab102507), and the experiment was performed according to the procedure below, adapted from the supplier's instructions.
In transparent 10 cm dishes, HeLa cells were grown in complete medium (DMEM, supplemented with 10% FBS) in presence (×3) or absence (×3) of VC-sialidase (20 mU/mL medium) for 96 hours. The medium was exchanged every 24 hours and fresh sialidase was added at those timepoints. After 96 hours, the medium was removed and DPBS (5 mL) was added. The cells were scraped, transferred to 15 mL conical tubes, and pelleted at 400×g for 5 minutes. The supernatant was removed, and the cells were lysed in 50 μL EDTA-free lysis buffer lysed by sonication (bioruptor) at 4° C. for 10 minutes.
The lysate was clarified at 18′000×g for 15 minutes and analyzed by BCA assay. 30 µL of the cell lysate was transferred to a 1.5 mL Eppendorf tube containing 30 μL of 7% TCA to precipitate proteins. The mixture was clarified at 18′000×g for 5 minutes and […] of the resulting solution were used for the zinc detection assay.

| Compound | Experiment/control [1] | biotinylation by confocal microscopy [2] | level of cytidine diphosphate choline (CDP-choline) [3] | level of cytidine diphosphate ethanolamine (CDP-Etn) [3] | level of phosphate ethanolamine (P-Etn) [3] | most metabolite levels [3] | Zinc concentration (nmol zinc/mg of protein-free lysate) ([4]; HeLa cells, VC-sialidase 20 mU/mL medium, 96 hours, single replicates) | zinc level vs untreated cells ([4]; sialidase-treated vs untreated HeLa cells) | tags per catalyst (labeling efficiency) ([1]; HeLa cells, Ac4ManNAz 100 μM, streptavidin blot densitometry, relative to DBCO-biotin) |
| --- | --- | --- | --- | --- | --- | --- | --- | --- | --- |
| O=C(CCCC[C@@H]1SC[C@@H]2NC(=O)N[C@@H]21)NCC(C(=O)NCCC(=O)N1Cc2ccccc2C#Cc2ccccc21)S(=O)(=O)O (some centres unmarked) [DBCO-biotin, DBCO-Sulfo-Link-biotin, reference compound] | 26.7 | strong biotinylation |  |  |  |  |  |  |  |
| VC-Sia: sialidase isolated from Vibrio cholerae, cleaves α2,3-, α2,6-, or α2,8-linked sialic acids |  |  | significantly increased | significantly increased | significantly increased | minimally affected | 1.4 nmol/mg | significantly higher |  |
| [Ir(dCO2HdFCF3ppy)2(bpy-dbco) [DBCO-iridium] | 17.6 | strong biotinylation |  |  |  |  |  |  | 0.7 tags per catalyst |
